Measurements published in patent US20070243222A1, “FUNGICIDAL FORMULATION AND METHOD OF USE” (priority 2006, published 2007).

Tests used:
[1] = test system: onychomycosis; conditions: standard oral treatment; survey Arch Dermatol 134(12):1551-1554, 1998; cited from earlier work
[2] = test system: onychomycosis; conditions: topical nail lacquer once daily, mild to moderate onychomycosis; combined results of two randomized, controlled trials; cited from earlier work
[3] = test system: Trichophyton rubrum; assay: inhibition of propagation of Trichophyton rubrum; format: cell-based; conditions: acting alone or in combination
Excerpt: An additional iron chelating agent, useful in the present invention, is an iron-chelating agent consisting of ciclopirox in conjunction with a light-blocking agent. Particularly, preferred iron chelating agents useful in the present invention are zinc pyrithione and Chelex-100. Pyrithione is 2-pyridinethiol-1-oxide and is a “bidentate ligand” that has the capacity to complex with metals other than zinc, such as iron. Chelex-100 is a styrene divinylbenzene copolymer containing paired iminodiacetate ions, which act as chelating groups for binding polyvalent metal ions.

Compound: CN(C/C=C/C#CC(C)(C)C)Cc1cccc2ccccc12 [terbinafine]
- disease-free nails, share of cases [1]: 35-50%

Compound: Cc1cc(C2CCCCC2)n(O)c(=O)c1 [ciclopirox]
- complete resolution, share of treated patients [2]: approximately 7%

Compound: zinc pyrithione
- inhibitory effect on the propagation of Trichophyton rubrum [3]: potent inhibitory effect
